Data published in PubChem BioAssay AID1919010 (Molecular Pharmacology Branch, DTP, NCI, 2023).

System: Hs578T complex spheroid growth, percent test/control
Experiment: Anticancer human tumor Hs578T cell line growth inhibition [AhR];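 note: luminescent viability signal as a proxy for spheroid growth; spheroids exposed to agents for one week after three days of growth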
Conditions: for IC50: curve of first compound; for viability, T/C: stronger effect = lower value
Outline: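 Complex tumor spheroids co-cultured with HUVEC and human MSC stroma; AhR antagonists tested in combination with standard-of-care and investigational agents. Top concentration at or near clinical Cmax (else 10 microM), half-log dilutions; growth expressed as percent test/control.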

[1] = second compound 0.1 µM, first compound 0.0316 µM
[2] = second compound 0.1 µM, first compound 0.1 µM
[3] = second compound 0.316 µM, first compound 0.0316 µM
[4] = second compound 0.316 µM, first compound 0.1 µM
[5] = second compound 1 µM, first compound 0.0316 µM
[6] = second compound 1 µM, first compound 0.1 µM
[7] = second compound 3.16 µM, first compound 0.0316 µM
[8] = second compound 3.16 µM, first compound 0.1 µM
[9] = second compound 10 µM, first compound 0.0316 µM
[10] = second compound 10 µM, first compound 0.1 µM

`CC1(C)CCC(CN2CCN(c3ccc(C(=O)NS(=O)(=O)c4ccc(NCC5CCOCC5)c([N+](=O)[O-])c4)c(Oc4cnc5[nH]ccc5c4)c3)CC2)=C(c2ccc(Cl)cc2)C1` + CC(CO)NC(=O)c1cc(-c2ccc(Cl)cc2)nn(-c2cnn(C)c2)c1=O was tested, and the IC50 (second compound 0.1 µM) was greater than 10 µM, the IC50 (second compound 0.316 µM) was greater than 10 µM and the IC50 (second compound 1 µM) was greater than 10 µM. It also gave an IC50 (second compound 3.16 µM) greater than 10 µM, an IC50 (second compound 10 µM) greater than 10 µM and a viability, T/C [1] of 109%. The viability, T/C [2] was 107%, the viability, T/C (second compound 0.1 µM, first compound 0.316 µM) was 107% and the viability, T/C (second compound 0.1 µM, first compound 1 µM) was 101%. For the same molecule, the viability, T/C (second compound 0.1 µM, first compound 3.16 µM) was 106%, the viability, T/C (second compound 0.1 µM, first compound 10 µM) was 84.3% and the viability, T/C [3] was 110%. The viability, T/C [4] was 99.7%, the viability, T/C (second compound 0.316 µM, first compound 0.316 µM) was 110% and the viability, T/C (second compound 0.316 µM, first compound 1 µM) was 91.2%. For the same molecule, the viability, T/C (second compound 0.316 µM, first compound 3.16 µM) was 93%, the viability, T/C (second compound 0.316 µM, first compound 10 µM) was 96.3% and the viability, T/C [5] was 115%. It also gave a viability, T/C [6] of 122%, a viability, T/C (second compound 1 µM, first compound 0.316 µM) of 114% and a viability, T/C (second compound 1 µM, first compound 1 µM) of 98.3%. For the same molecule, the viability, T/C (second compound 1 µM, first compound 3.16 µM) was 109%, the viability, T/C (second compound 1 µM, first compound 10 µM) was 80% and the viability, T/C [7] was 108%. For the same molecule, the viability, T/C [8] was 111%, the viability, T/C (second compound 3.16 µM, first compound 0.316 µM) was 110% and the viability, T/C (second compound 3.16 µM, first compound 1 µM) was 99.7%. The viability, T/C (second compound 3.16 µM, first compound 3.16 µM) was 102%, the viability, T/C (second compound 3.16 µM, first compound 10 µM) was 88.7% and the viability, T/C [9] was 117%. For the same molecule, the viability, T/C [10] was 96.9%, the viability, T/C (second compound 10 µM, first compound 0.316 µM) was 79.4% and the viability, T/C (second compound 10 µM, first compound 1 µM) was 86%. The viability, T/C (second compound 10 µM, first compound 3.16 µM) was 87.1% and the viability, T/C (second compound 10 µM, first compound 10 µM) was 91.8%.

In the case of `CCN(c1cc(-c2ccc(CN3CCOCC3)cc2)cc(C(=O)NCc2c(C)cc(C)[nH]c2=O)c1C)C1CCOCC1` + CC(CO)NC(=O)c1cc(-c2ccc(Cl)cc2)nn(-c2cnn(C)c2)c1=O, the IC50 (second compound 0.1 µM) is reported as greater than 3 µM, the IC50 (second compound 0.316 µM) is reported as greater than 3 µM and the IC50 (second compound 1 µM) is reported as greater than 3 µM. The IC50 (second compound 3.16 µM) was greater than 3 µM, the IC50 (second compound 10 µM) was greater than 3 µM and the viability, T/C (second compound 0.1 µM, first compound 0.00949 µM) was 116%. For the same molecule, the viability, T/C (second compound 0.1 µM, first compound 0.03 µM) was 112%, the viability, T/C (second compound 0.1 µM, first compound 0.0949 µM) was 112% and the viability, T/C (second compound 0.1 µM, first compound 0.3 µM) was 102%. It also gave a viability, T/C (second compound 0.1 µM, first compound 0.949 µM) of 104%, a viability, T/C (second compound 0.1 µM, first compound 3 µM) of 112% and a viability, T/C (second compound 0.316 µM, first compound 0.00949 µM) of 114%. The viability, T/C (second compound 0.316 µM, first compound 0.03 µM) was 112%, the viability, T/C (second compound 0.316 µM, first compound 0.0949 µM) was 122% and the viability, T/C (second compound 0.316 µM, first compound 0.3 µM) was 109%. It also gave a viability, T/C (second compound 0.316 µM, first compound 0.949 µM) of 114%, a viability, T/C (second compound 0.316 µM, first compound 3 µM) of 98.4% and a viability, T/C (second compound 1 µM, first compound 0.00949 µM) of 113%. It also gave a viability, T/C (second compound 1 µM, first compound 0.03 µM) of 121%, a viability, T/C (second compound 1 µM, first compound 0.0949 µM) of 120% and a viability, T/C (second compound 1 µM, first compound 0.3 µM) of 107%. The viability, T/C (second compound 1 µM, first compound 0.949 µM) was 111%, the viability, T/C (second compound 1 µM, first compound 3 µM) was 113% and the viability, T/C (second compound 3.16 µM, first compound 0.00949 µM) was 107%. It also gave a viability, T/C (second compound 3.16 µM, first compound 0.03 µM) of 113%, a viability, T/C (second compound 3.16 µM, first compound 0.0949 µM) of 115% and a viability, T/C (second compound 3.16 µM, first compound 0.3 µM) of 111%. It also gave a viability, T/C (second compound 3.16 µM, first compound 0.949 µM) of 104%, a viability, T/C (second compound 3.16 µM, first compound 3 µM) of 106% and a viability, T/C (second compound 10 µM, first compound 0.00949 µM) of 107%. For the same molecule, the viability, T/C (second compound 10 µM, first compound 0.03 µM) was 104%, the viability, T/C (second compound 10 µM, first compound 0.0949 µM) was 107% and the viability, T/C (second compound 10 µM, first compound 0.3 µM) was 92.3%. It also gave a viability, T/C (second compound 10 µM, first compound 0.949 µM) of 101% and a viability, T/C (second compound 10 µM, first compound 3 µM) of 106%.

For `Cn1ncnc1C1c2n[nH]c(=O)c3cc(F)cc(c23)NC1c1ccc(F)cc1` (stereo not given) + CC(CO)NC(=O)c1cc(-c2ccc(Cl)cc2)nn(-c2cnn(C)c2)c1=O, the IC50 (second compound 0.1 µM) was greater than 0.1 µM, the IC50 (second compound 0.316 µM) was greater than 0.1 µM and the IC50 (second compound 1 µM) was greater than 0.1 µM. For the same molecule, the IC50 (second compound 3.16 µM) was greater than 0.1 µM, the IC50 (second compound 10 µM) was greater than 0.1 µM and the viability, T/C (second compound 0.1 µM, first compound 0.000316 µM) was 111%. The viability, T/C (second compound 0.1 µM, first compound 0.001 µM) was 118%, the viability, T/C (second compound 0.1 µM, first compound 0.00316 µM) was 117% and the viability, T/C (second compound 0.1 µM, first compound 0.01 µM) was 109%. For the same molecule, the viability, T/C [1] was 117%, the viability, T/C [2] was 120% and the viability, T/C (second compound 0.316 µM, first compound 0.000316 µM) was 110%. It also gave a viability, T/C (second compound 0.316 µM, first compound 0.001 µM) of 115%, a viability, T/C (second compound 0.316 µM, first compound 0.00316 µM) of 125% and a viability, T/C (second compound 0.316 µM, first compound 0.01 µM) of 118%. The viability, T/C [3] was 118%, the viability, T/C [4] was 108% and the viability, T/C (second compound 1 µM, first compound 0.000316 µM) was 112%. The viability, T/C (second compound 1 µM, first compound 0.001 µM) was 131%, the viability, T/C (second compound 1 µM, first compound 0.00316 µM) was 127% and the viability, T/C (second compound 1 µM, first compound 0.01 µM) was 109%. It also gave a viability, T/C [5] of 117%, a viability, T/C [6] of 109% and a viability, T/C (second compound 3.16 µM, first compound 0.000316 µM) of 108%. For the same molecule, the viability, T/C (second compound 3.16 µM, first compound 0.001 µM) was 127%, the viability, T/C (second compound 3.16 µM, first compound 0.00316 µM) was 140% and the viability, T/C (second compound 3.16 µM, first compound 0.01 µM) was 114%. The viability, T/C [7] was 118%, the viability, T/C [8] was 118% and the viability, T/C (second compound 10 µM, first compound 0.000316 µM) was 95.1%. It also gave a viability, T/C (second compound 10 µM, first compound 0.001 µM) of 110%, a viability, T/C (second compound 10 µM, first compound 0.00316 µM) of 104% and a viability, T/C (second compound 10 µM, first compound 0.01 µM) of 95.6%. The viability, T/C [9] was 109% and the viability, T/C [10] was 118%.
